Measurements as given in ChEMBL document CHEMBL4052762, “Synthesis and biological evaluation of pyrrole-based chalcones as CYP1 enzyme inhibitors, for possible prevention of cancer and overcoming cisplatin resistance” (Bioorg Med Chem Lett, 2017).

Tests used:
[1] = target: Cytochrome P450 2C9 (Homo sapiens, UniProt P11712); assay: Inhibition of human CYP2C9 bound to yeast microsomal membrane using 3-cyano-7-ethoxycoumarin as substrate after 10 mins by fluorescence assay; assay type: ADME
[2] = target: Cytochrome P450 3A4 (Homo sapiens, UniProt P08684); assay: Inhibition of human CYP3A4 bound to yeast microsomal membrane using dibenzylfluorescein as substrate after 10 mins by fluorescence assay; assay type: ADME
[3] = target: T1, Cytochrome P450 1A1 (Homo sapiens, UniProt P04798); assay: Inhibition of human CYP1A1 bound to yeast microsomal membrane using 7-ethoxyresorufin as substrate after 10 mins by fluorescence assay
T1 sequence (P04798 whole entry): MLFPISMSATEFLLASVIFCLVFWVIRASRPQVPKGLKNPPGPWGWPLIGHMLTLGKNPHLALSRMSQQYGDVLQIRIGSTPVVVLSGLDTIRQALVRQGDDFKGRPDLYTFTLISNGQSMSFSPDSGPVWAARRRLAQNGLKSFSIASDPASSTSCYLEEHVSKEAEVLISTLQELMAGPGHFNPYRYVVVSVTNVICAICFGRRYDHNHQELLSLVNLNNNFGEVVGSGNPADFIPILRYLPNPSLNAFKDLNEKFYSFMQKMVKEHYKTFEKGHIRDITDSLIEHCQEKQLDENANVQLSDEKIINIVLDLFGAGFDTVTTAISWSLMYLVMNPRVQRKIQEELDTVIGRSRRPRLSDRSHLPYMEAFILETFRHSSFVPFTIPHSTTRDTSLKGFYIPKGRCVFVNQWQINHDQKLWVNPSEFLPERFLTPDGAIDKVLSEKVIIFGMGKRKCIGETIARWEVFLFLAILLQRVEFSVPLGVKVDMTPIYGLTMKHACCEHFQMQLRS

[4] = target: Cytochrome P450 2C19 (Homo sapiens, UniProt P33261); assay: Inhibition of human CYP2C19 bound to yeast microsomal membrane using 3-cyano-7-ethoxycoumarin as substrate after 10 mins by fluorescence assay; assay type: ADME
[5] = target: T2, Cytochrome P450 1B1 (Homo sapiens, UniProt Q16678); assay: Inhibition of human CYP1B1 bound to yeast microsomal membrane using 7-ethoxyresorufin as substrate after 10 mins by fluorescence assay
T2 sequence (Q16678 whole entry): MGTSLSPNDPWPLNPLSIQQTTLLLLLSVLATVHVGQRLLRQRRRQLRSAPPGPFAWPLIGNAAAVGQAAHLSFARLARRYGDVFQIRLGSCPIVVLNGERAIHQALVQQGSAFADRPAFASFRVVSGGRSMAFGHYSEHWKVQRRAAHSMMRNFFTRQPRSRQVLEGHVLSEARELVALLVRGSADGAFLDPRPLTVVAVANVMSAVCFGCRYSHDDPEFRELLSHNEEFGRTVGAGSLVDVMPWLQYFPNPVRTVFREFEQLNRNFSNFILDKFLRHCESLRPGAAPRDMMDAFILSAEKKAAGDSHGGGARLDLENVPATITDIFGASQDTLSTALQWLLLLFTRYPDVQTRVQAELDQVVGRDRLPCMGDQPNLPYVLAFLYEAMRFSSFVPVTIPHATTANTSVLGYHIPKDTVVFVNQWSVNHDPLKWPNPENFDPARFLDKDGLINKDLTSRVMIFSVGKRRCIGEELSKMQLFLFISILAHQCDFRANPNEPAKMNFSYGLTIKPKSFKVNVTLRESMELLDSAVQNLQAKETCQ

[6] = target: T3, Cytochrome P450 1A2 (Homo sapiens, UniProt P05177); assay: Inhibition of human CYP1A2 bound to yeast microsomal membrane using 3-cyano-7-ethoxycoumarin as substrate after 10 mins by fluorescence assay
T3 sequence (P05177 whole entry): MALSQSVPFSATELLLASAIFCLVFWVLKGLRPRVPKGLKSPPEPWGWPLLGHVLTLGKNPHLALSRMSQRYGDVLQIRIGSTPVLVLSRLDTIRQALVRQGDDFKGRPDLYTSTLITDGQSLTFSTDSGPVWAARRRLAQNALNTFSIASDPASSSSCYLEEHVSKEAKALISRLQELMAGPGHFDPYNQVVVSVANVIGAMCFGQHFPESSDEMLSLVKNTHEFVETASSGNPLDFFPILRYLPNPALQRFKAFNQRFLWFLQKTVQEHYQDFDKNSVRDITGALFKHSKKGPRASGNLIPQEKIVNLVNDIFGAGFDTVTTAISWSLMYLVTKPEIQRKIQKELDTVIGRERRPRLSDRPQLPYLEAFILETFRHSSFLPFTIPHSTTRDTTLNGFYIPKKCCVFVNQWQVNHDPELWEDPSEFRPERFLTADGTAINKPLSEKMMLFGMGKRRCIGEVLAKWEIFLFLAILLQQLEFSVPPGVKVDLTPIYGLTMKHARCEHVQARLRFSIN

[7] = target: Cytochrome P450 2D6 (Homo sapiens, UniProt P10635); assay: Inhibition of human CYP2D6 bound to yeast microsomal membrane using 7-ethoxy-methyloxy-3-cyanocoumarin as substrate after 10 mins by fluorescence assay; assay type: ADME
Cytochrome P450 2D6, sequence (P10635 whole entry): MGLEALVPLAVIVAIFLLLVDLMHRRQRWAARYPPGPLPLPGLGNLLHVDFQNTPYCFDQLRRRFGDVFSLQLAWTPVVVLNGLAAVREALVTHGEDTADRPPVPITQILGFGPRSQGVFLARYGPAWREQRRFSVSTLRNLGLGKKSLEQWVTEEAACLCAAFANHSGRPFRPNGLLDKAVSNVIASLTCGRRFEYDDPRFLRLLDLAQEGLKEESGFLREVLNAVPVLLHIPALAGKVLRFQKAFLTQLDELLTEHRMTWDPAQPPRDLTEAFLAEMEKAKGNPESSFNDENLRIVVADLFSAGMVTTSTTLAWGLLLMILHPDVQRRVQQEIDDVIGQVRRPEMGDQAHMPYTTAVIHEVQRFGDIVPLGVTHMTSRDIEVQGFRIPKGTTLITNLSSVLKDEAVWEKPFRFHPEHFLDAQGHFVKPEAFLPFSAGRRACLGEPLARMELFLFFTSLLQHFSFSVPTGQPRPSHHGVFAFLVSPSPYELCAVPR

Cytochrome P450 3A4, sequence (P08684 whole entry): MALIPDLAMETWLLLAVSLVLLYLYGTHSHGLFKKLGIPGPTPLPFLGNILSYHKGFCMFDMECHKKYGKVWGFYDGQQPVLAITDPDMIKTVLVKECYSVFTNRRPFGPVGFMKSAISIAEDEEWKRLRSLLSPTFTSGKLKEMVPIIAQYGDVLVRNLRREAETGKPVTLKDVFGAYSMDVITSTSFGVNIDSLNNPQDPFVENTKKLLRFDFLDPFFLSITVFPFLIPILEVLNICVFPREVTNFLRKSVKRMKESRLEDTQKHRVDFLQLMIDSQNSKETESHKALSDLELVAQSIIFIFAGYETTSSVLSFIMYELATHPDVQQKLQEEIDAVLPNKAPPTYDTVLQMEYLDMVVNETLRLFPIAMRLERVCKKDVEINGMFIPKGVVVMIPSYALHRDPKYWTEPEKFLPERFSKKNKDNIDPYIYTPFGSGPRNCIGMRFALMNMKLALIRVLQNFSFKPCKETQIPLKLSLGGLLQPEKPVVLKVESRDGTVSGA
Cytochrome P450 2C9, sequence (P11712 whole entry): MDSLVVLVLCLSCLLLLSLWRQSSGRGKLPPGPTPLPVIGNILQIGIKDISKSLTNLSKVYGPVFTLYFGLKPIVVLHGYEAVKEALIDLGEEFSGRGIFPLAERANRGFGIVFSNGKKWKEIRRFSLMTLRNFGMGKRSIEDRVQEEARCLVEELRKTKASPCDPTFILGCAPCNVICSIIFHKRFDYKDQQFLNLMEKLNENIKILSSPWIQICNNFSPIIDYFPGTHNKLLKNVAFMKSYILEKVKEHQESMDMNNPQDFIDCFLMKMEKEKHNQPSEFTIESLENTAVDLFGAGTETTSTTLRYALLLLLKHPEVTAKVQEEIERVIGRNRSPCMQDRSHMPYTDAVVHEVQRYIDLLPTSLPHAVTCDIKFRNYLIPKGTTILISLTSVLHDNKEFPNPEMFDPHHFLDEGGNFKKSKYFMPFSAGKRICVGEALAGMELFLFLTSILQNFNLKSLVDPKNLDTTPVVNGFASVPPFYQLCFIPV
Cytochrome P450 2C19, sequence (P33261 whole entry): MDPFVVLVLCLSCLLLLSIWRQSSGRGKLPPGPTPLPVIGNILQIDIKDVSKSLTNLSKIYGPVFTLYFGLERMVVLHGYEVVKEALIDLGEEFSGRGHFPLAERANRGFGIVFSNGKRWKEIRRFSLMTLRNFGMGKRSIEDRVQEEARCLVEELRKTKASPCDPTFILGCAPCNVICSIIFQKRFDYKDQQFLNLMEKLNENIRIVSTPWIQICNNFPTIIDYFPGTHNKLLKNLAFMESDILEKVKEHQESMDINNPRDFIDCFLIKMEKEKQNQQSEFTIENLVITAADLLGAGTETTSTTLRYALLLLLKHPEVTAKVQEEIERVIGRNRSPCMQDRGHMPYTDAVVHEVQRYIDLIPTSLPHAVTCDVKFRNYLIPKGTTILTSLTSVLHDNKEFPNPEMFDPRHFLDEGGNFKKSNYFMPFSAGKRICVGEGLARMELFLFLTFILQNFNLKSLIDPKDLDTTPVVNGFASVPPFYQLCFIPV

`COc1ccc(/C=C/C(=O)c2ccc[nH]2)cc1Br` gave an IC50 [1] greater than 20 µM, an IC50 [2] greater than 20 µM and an IC50 [3] greater than 20 µM. It also gave an IC50 [4] greater than 20 µM, an IC50 [5] greater than 20 µM and an IC50 [6] of 17 µM. It also gave an IC50 [7] of 13 µM.
In the case of `COc1ccc(/C=C/C(=O)c2ccc[nH]2)cc1`, the IC50 [1] is reported as greater than 20 µM, the IC50 [2] is reported as greater than 20 µM and the IC50 [3] is reported as greater than 20 µM. For the same molecule, the IC50 [4] was greater than 20 µM, the IC50 [5] was greater than 20 µM and the IC50 [6] was 11.8 µM. The IC50 [7] was 16 µM.
In the case of `COc1ccc(/C=C/C(=O)c2ccc[nH]2)c(OC)c1`, the IC50 [1] is reported as greater than 20 µM, the IC50 [2] is reported as greater than 20 µM and the IC50 [3] is reported as 11.8 µM. It also gave an IC50 [4] greater than 20 µM, an IC50 [5] greater than 20 µM and an IC50 [6] of 10 µM. For the same molecule, the IC50 [7] was 11 µM.
`CN(C)c1ccc(/C=C/C(=O)c2ccc[nH]2)cc1` gave an IC50 [1] greater than 20 µM, an IC50 [2] greater than 20 µM and an IC50 [3] greater than 20 µM. The IC50 [4] was greater than 20 µM, the IC50 [5] was greater than 20 µM and the IC50 [6] was 12.5 µM. It also gave an IC50 [7] of 13 µM.
`O=C(/C=C/c1ccc(Br)cc1)c1ccc[nH]1` showed an IC50 [1] greater than 20 µM, an IC50 [2] greater than 20 µM and an IC50 [3] greater than 20 µM. It also gave an IC50 [4] greater than 20 µM, an IC50 [5] of 8.5 µM and an IC50 [6] of 13.2 µM. It also gave an IC50 [7] of 18 µM.
In the case of `O=C(/C=C/c1c2ccccc2cc2ccccc12)c1ccc[nH]1`, the IC50 [1] is reported as greater than 20 µM, the IC50 [2] is reported as greater than 20 µM and the IC50 [3] is reported as greater than 20 µM. The IC50 [4] was greater than 20 µM, the IC50 [5] was greater than 20 µM and the IC50 [6] was greater than 20 µM. It also gave an IC50 [7] of 12 µM.
For `COc1cccc(/C=C/C(=O)c2ccc[nH]2)c1`, the IC50 [1] was greater than 20 µM, the IC50 [2] was greater than 20 µM and the IC50 [3] was 6.2 µM. For the same molecule, the IC50 [4] was greater than 20 µM, the IC50 [5] was 5.2 µM and the IC50 [6] was 1.5 µM. For the same molecule, the IC50 [7] was 11 µM.
Molecule `O=C(/C=C/c1ccc2c(c1)OCO2)c1ccc[nH]1` has an IC50 [1] greater than 20 µM, an IC50 [2] greater than 20 µM and an IC50 [3] of 5.8 µM. The IC50 [4] was greater than 20 µM, the IC50 [5] was greater than 20 µM and the IC50 [6] was 9.7 µM. It also gave an IC50 [7] of 14 µM.
`CCc1ccc(/C=C/C(=O)c2ccc[nH]2)o1` was tested, and the IC50 [1] was greater than 20 µM, the IC50 [2] was greater than 20 µM and the IC50 [3] was greater than 20 µM. It also gave an IC50 [4] greater than 20 µM, an IC50 [5] of 9.2 µM and an IC50 [6] of 2.5 µM. The IC50 [7] was 17 µM.
For `COc1cc(/C=C/C(=O)c2ccc[nH]2)cc(OC)c1`, the IC50 [1] was greater than 20 µM, the IC50 [2] was greater than 20 µM and the IC50 [3] was 6.1 µM. For the same molecule, the IC50 [4] was greater than 20 µM, the IC50 [5] was greater than 20 µM and the IC50 [6] was 9 µM. It also gave an IC50 [7] of 15 µM.
With `O=C(/C=C/c1cc([N+](=O)[O-])ccc1Cl)c1ccc[nH]1` the IC50 [1] was greater than 20 µM, the IC50 [2] was greater than 20 µM and the IC50 [3] was greater than 20 µM. The IC50 [4] was greater than 20 µM, the IC50 [5] was greater than 20 µM and the IC50 [6] was 10.9 µM. For the same molecule, the IC50 [7] was 12 µM.
Molecule `O=C(/C=C/c1cccc(Br)c1)c1ccc[nH]1` has an IC50 [1] greater than 20 µM, an IC50 [2] greater than 20 µM and an IC50 [3] greater than 20 µM. For the same molecule, the IC50 [4] was greater than 20 µM, the IC50 [5] was 13 µM and the IC50 [6] was greater than 20 µM. The IC50 [7] was 14 µM.
With `O=C(/C=C/c1ccccc1F)c1ccc[nH]1` the IC50 [1] was greater than 20 µM, the IC50 [2] was greater than 20 µM and the IC50 [3] was greater than 20 µM. It also gave an IC50 [4] greater than 20 µM, an IC50 [5] of 2.7 µM and an IC50 [6] of 2.2 µM. For the same molecule, the IC50 [7] was 16 µM.
With `O=C(/C=C/c1cccc(Cl)c1)c1ccc[nH]1` the IC50 [1] was greater than 20 µM, the IC50 [2] was greater than 20 µM and the IC50 [3] was 16 µM. It also gave an IC50 [4] greater than 20 µM, an IC50 [5] of 1.5 µM and an IC50 [6] of 12 µM. For the same molecule, the IC50 [7] was 14 µM.
In the case of `O=C(O)c1ccc(/C=C/C(=O)c2ccc[nH]2)cc1`, the IC50 [1] is reported as greater than 20 µM, the IC50 [2] is reported as greater than 20 µM and the IC50 [3] is reported as greater than 20 µM. The IC50 [4] was greater than 20 µM, the IC50 [5] was greater than 20 µM and the IC50 [6] was greater than 20 µM. It also gave an IC50 [7] of 18 µM.
`COc1ccc(/C=C/C=C/C(=O)c2ccc[nH]2)cc1` was tested, and the IC50 [1] was greater than 20 µM, the IC50 [2] was greater than 20 µM and the IC50 [3] was greater than 20 µM. It also gave an IC50 [4] greater than 20 µM, an IC50 [5] greater than 20 µM and an IC50 [6] of 13 µM. For the same molecule, the IC50 [7] was 18 µM.
With `COc1cccc(OC)c1/C=C/C(=O)c1ccc[nH]1` the IC50 [1] was greater than 20 µM, the IC50 [2] was greater than 20 µM and the IC50 [3] was 10.8 µM. For the same molecule, the IC50 [4] was greater than 20 µM, the IC50 [5] was greater than 20 µM and the IC50 [6] was 10 µM. For the same molecule, the IC50 [7] was 18 µM.
With `COc1cc(/C=C/C(=O)c2ccc[nH]2)cc(OC)c1OC` the IC50 [1] was greater than 20 µM, the IC50 [2] was greater than 20 µM and the IC50 [3] was greater than 20 µM. The IC50 [4] was greater than 20 µM, the IC50 [5] was greater than 20 µM and the IC50 [6] was 15 µM. For the same molecule, the IC50 [7] was 14 µM.
With `O=C(/C=C/C=C/c1ccccc1)c1ccc[nH]1` the IC50 [1] was greater than 20 µM, the IC50 [2] was greater than 20 µM and the IC50 [3] was greater than 20 µM. It also gave an IC50 [4] greater than 20 µM, an IC50 [5] greater than 20 µM and an IC50 [6] of 10.5 µM. It also gave an IC50 [7] of 12 µM.
`COc1cccc(/C=C/C(=O)c2ccc[nH]2)c1OC` was tested, and the IC50 [1] was greater than 20 µM, the IC50 [2] was greater than 20 µM and the IC50 [3] was 5.2 µM. The IC50 [4] was greater than 20 µM, the IC50 [5] was greater than 20 µM and the IC50 [6] was 9.2 µM. The IC50 [7] was 16 µM.
